Patent US11547708B2, “Compositions and methods to protect mammalian tissue against cold and other metabolic stresses” (THE UNITED STATES OF AMERICA, AS REPRESENTED BY THE …, priority 2017, dated 2023)
Where a SMILES comes first, the peptide text is derived from it. The star is where a group is joined. Cbz = O=C(OCc1ccccc1)*

Legend:
Assay type in all cases: cell-based
[1] = test system: human iPSC-neurons; experiment: Evaluation of neuronal microtubule stability in response to cold (tubulin immunofluorescence, TUBB3+ microtubule tracing)
Method: The temperature-dependent experiments in this study were performed at ambient CO2 concentration, which required the use of hibernate-medium (Table 2) to maintain the physiological pH. Experiments were conducted by first incubating cultured neurons (human iPSC-derived, GS iPSC-derived, GS primary, or rat primary cultures) in hibernate-medium for 30 min at room temperature. During this time (pre-incubation), drug treatments (see Other Reagents, Table 1) were introduced to test cold resistance and microtubule stability. The cell culture dishes were then kept in an ambient 37° C. incubator, or in a 4° C. refrigerator. […] The pH of hibernate-medium was stable and maintained the pH between 7.0 and 7.4 even after 16-h incubation at 4° C.
Cultured neurons or rat retinal explants with or without treatments were fixed with 4% paraformaldehyde, permeabilized and washed with 0.1% Triton X-100 in phosphate buffered saline, and stained by antibodies against TUBB3. TUBB3+ microtubule paths in images of 188.94×188.94 μm^2 from human iPSC-derived neuronal cultures and images of 67.48×67.48 μm^2 from rat whole-mount retinas were traced with the ‘Simple Neurite Tracer’ plugin in ImageJ.

[2] = test system: human iPSC-neurons; experiment: Detection of protein aggregates on neuronal microtubules; conditions: 4° C. for 4 h, pre-incubation
Method: After treatments, cultured neurons were fixed with 4% paraformaldehyde for 10 minutes and then permeabilized and washed with 0.1% Triton X-100 in phosphate buffered saline. Protein aggregates were visualized by a dye that intercalates into the denatured and aggregated proteins and becomes fluorescent (Proteostat aggresome detection kit, Enzo, Farmingdale, N.Y.; see Table 2) (Shen, 2011). For accumulation of protein aggregates on the neuronal microtubules, cells were stained with TUBB3 antibody and the protein aggregate dye, and images (188.94 μm×188.94 μm) were taken. In each image, the number of protein aggregates residing on the microtubules was counted and divided by the total length of the TUBB3+ microtubule paths.

[3] = test system: human iPSC-neurons; experiment: Live cell imaging of lysosomes using Magic Red and DND-26 (lysosomal membrane permeabilization, LMP); conditions: 4-h at 4° C.
Method: GS and Human iPSC-derived neuronal cultures were prepared in duplicate and incubated with hibernate-medium containing Magic Red (1:1000; ImmunoChemistry Technologies, Bloomington, Minn.) at 37° C. for 25 min, followed by the addition of LysoTracker Green DND-26 (50 nM; Thermo Fisher, Waltham, Mass.; see Table 1) for 5 min. The dye-containing medium was then replaced with fresh hibernate-medium, and one group of cultures was incubated at 4° C. for 1, 4 or 16 h, while the other group remained at 37° C. serving as normal controls. The cold-exposed group was subjected to confocal imaging at various temperatures (10° C., room temperature, or 37° C.), while the control group was imaged at either room temperature or 37° C. […] Magic Red becomes fluorescent after being cleaved by the lysosomal protease cathepsin B, while DND-26 is an acidotropic probe that accumulates in the acidic lysosomal vesicles. When LMP occurs, Magic Red and DND-26 signals become diffused within the cytoplasm of the affected cells. It was determined that cells have LMP if they contain a single Magic Red-stained particle of diameter >5 μm, which is about the size of the neuronal cell nucleus.

[4] = test system: rat retinal ganglion cells (RGCs); experiment: Multielectrode array (MEA) recordings of RGC activity in cold-exposed rat retina explants; conditions: 4° C. for 4 h, Taxol 10 μM
Method: All experiments were carried out under dim red light. Rat retina explants were removed and cut into smaller pieces in hibernate-medium, and divided into different treatment groups for pre-incubation with drugs promoting microtubule stability or a DMSO vehicle control at room temperature for 30 minutes. The cold-exposed groups were incubated in the refrigerator, while the fresh control samples were incubated on the bench in dark at room temperature. […] After 4- or 24-hour incubation, the cold-exposed retinal explants were placed on the bench for 10-15 minutes, and washed twice with fresh hibernate-medium. Retinal explants from all groups were then transferred to oxygenated (95% O2/5% CO2) bicarbonate-buffered AMES medium at room temperature. The sclera and RPE were removed prior to flat mounting the neural retina with the ganglion cell (RGC)-side facing down onto the MEA.
During MEA recording, the neural retinas were perfused with 95% O2/5% CO2-balanced AMES perfusion at 37° C. to measure the spontaneous firing activity of the rat RGCs over the course of 15 minutes. […] For MEA data processing and analyses, the firing spikes of RGCs were first filtered and recorded in MC Rack with a high-pass filter set at 200 Hz, a low-pass filter set at 3000 Hz, and the automatic standard deviation for spike detection threshold was set at −6. […]

Structure (SMILES): CCOC(=O)c1ccc(N2NC(=O)/C(=C/c3ccc([N+](=O)[O-])o3)C2=O)cc1 [PYR-41]
- microtubule morphology after pre-treatment with ubiquitination inhibitor ([1]; human iPSC-neurons, 4-h incubation at 4° C.): did not improve microtubule morphology

Structure (SMILES): CC(C)C[C@@H](C=O)NC(=O)[C@H](CC(C)C)NC(=O)[C@H](CC(C)C)NC(=O)OCc1ccccc1 [MG-132] (Cbz-Leu-Leu-Leu-aldehyde)
- protein aggregates along microtubule processes [2]: did not show any further increase in aggregation

Structure (SMILES): O=C1O[C@H]([C@@H](O)CO)C(O)=C1O [vitamin C, ascorbic acid]
- LMP (number of cells containing diffuse Magic Red) [3]: alleviated LMP

Structure (SMILES): CC(=O)O[C@H]1C(=O)[C@@]2(C)[C@H]([C@H](OC(=O)c3ccccc3)[C@]3(O)C[C@H](OC(=O)[C@H](O)[C@@H](NC(=O)c4ccccc4)c4ccccc4)C(C)=C1C3(C)C)[C@]1(OC(C)=O)CO[C@@H]1C[C@@H]2O [Taxol]
- preservation of microtubules in cold ([1]; human iPSC-neurons at 4° C., 10 μM (FIG. 6B)): preserved microtubules in cold
- protection of neuronal microtubules, low dose ([1]; human iPSC-neurons, 16-h cold exposure, 0.1 μM): did not protect
- spontaneous RGC activity / firing rate distributions (MEA) [4]: did not preserve RGC activity
